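Compound exposure: 48 hours, 5 concentrations, 96-well plates. Definition used: TGI = concentration required for complete inhibition of growth.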
Assays:
Test in all cases: DTP human tumour cell line panel, 48 h
SW-620 colon = system: SW-620 colon
RPMI-8226 leukemia = system: RPMI-8226 leukemia
BT-549 breast = system: BT-549 breast
UO-31 renal = system: UO-31 renal
MDA-MB-435 = system: MDA-MB-435
HS 578T breast = system: HS 578T breast
NCI-H23 lung = system: NCI-H23 lung
T-47D breast = system: T-47D breast
SK-MEL-28 melanoma = system: SK-MEL-28 melanoma
HOP-62 NSCLC = system: HOP-62 NSCLC
786-0 renal = system: 786-0 renal
MDA-N = system: MDA-N
TK-10 renal = system: TK-10 renal
UACC-62 melanoma = system: UACC-62 melanoma
KM12 colon = system: KM12 colon
DU-145 prostate = system: DU-145 prostate
MOLT-4 leukemia = system: MOLT-4 leukemia
HL-60(TB) leukemia = system: HL-60(TB) leukemia
NCI-H460 lung = system: NCI-H460 lung
A549 NSCLC = system: A549 NSCLC
SF-539 CNS = system: SF-539 CNS
HT29 colon = system: HT29 colon
MCF7 breast = system: MCF7 breast
NCI-H226 lung = system: NCI-H226 lung
LOX IMVI melanoma = system: LOX IMVI melanoma
A498 renal = system: A498 renal
MDA-MB-231 breast = system: MDA-MB-231 breast
SNB-19 CNS = system: SNB-19 CNS
K-562 leukemia = system: K-562 leukemia
HCC-2998 colon = system: HCC-2998 colon
CCRF-CEM leukemia = system: CCRF-CEM leukemia
OVCAR-8 ovarian = system: OVCAR-8 ovarian
HCT-116 colon = system: HCT-116 colon
ACHN renal = system: ACHN renal
SK-MEL-5 melanoma = system: SK-MEL-5 melanoma
SK-OV-3 ovarian = system: SK-OV-3 ovarian
SF-295 CNS = system: SF-295 CNS
EKVX NSCLC = system: EKVX NSCLC
MALME-3M melanoma = system: MALME-3M melanoma
SN12C renal = system: SN12C renal
IGROV1 ovarian = system: IGROV1 ovarian
UACC-257 melanoma = system: UACC-257 melanoma
PC-3 prostate = system: PC-3 prostate
HCT-15 colon = system: HCT-15 colon
SF-268 CNS = system: SF-268 CNS
SNB-75 CNS = system: SNB-75 CNS
NCI-H522 lung = system: NCI-H522 lung
COLO 205 colon = system: COLO 205 colon
RXF 393 renal = system: RXF 393 renal
OVCAR-3 ovarian = system: OVCAR-3 ovarian
OVCAR-5 ovarian = system: OVCAR-5 ovarian
U251 CNS = system: U251 CNS
HOP-92 NSCLC = system: HOP-92 NSCLC
M14 melanoma = system: M14 melanoma
CAKI-1 renal = system: CAKI-1 renal
NCI/ADR-RES ovarian = system: NCI/ADR-RES ovarian
SK-MEL-2 melanoma = system: SK-MEL-2 melanoma
OVCAR-4 ovarian = system: OVCAR-4 ovarian

SMILES: CC(C)OP(=O)(c1ccccc1)c1ccc2c(c1)OCCOCCOCCOCCO2 (configuration not stated)
- TGI (SW-620 colon): > 100 µM
- TGI (RPMI-8226 leukemia): > 100 µM
- TGI (BT-549 breast): > 100 µM
- TGI (UO-31 renal): > 100 µM
- TGI (MDA-MB-435): > 100 µM
- TGI (HS 578T breast): > 100 µM
- TGI (NCI-H23 lung): > 100 µM
- TGI (T-47D breast): > 100 µM
- TGI (SK-MEL-28 melanoma): > 100 µM
- TGI (HOP-62 NSCLC): > 100 µM
- TGI (786-0 renal): > 100 µM
- TGI (MDA-N): > 100 µM
- TGI (TK-10 renal): > 100 µM
- TGI (UACC-62 melanoma): > 100 µM
- TGI (KM12 colon): > 100 µM
- TGI (DU-145 prostate): > 100 µM
- TGI (MOLT-4 leukemia): > 100 µM
- TGI (HL-60(TB) leukemia): > 100 µM
- TGI (NCI-H460 lung): > 100 µM
- TGI (A549 NSCLC): > 100 µM
- TGI (SF-539 CNS): > 100 µM
- TGI (HT29 colon): > 100 µM
- TGI (MCF7 breast): > 100 µM
- TGI (NCI-H226 lung): > 100 µM
- TGI (LOX IMVI melanoma): > 100 µM
- TGI (A498 renal): > 100 µM
- TGI (MDA-MB-231 breast): > 100 µM
- TGI (SNB-19 CNS): > 100 µM
- TGI (K-562 leukemia): > 100 µM
- TGI (HCC-2998 colon): > 100 µM
- TGI (CCRF-CEM leukemia): > 100 µM
- TGI (OVCAR-8 ovarian): > 100 µM
- TGI (HCT-116 colon): > 100 µM
- TGI (ACHN renal): > 100 µM
- TGI (SK-MEL-5 melanoma): > 100 µM
- TGI (SK-OV-3 ovarian): > 100 µM
- TGI (SF-295 CNS): > 100 µM
- TGI (EKVX NSCLC): > 100 µM
- TGI (MALME-3M melanoma): > 100 µM
- TGI (SN12C renal): > 100 µM
- TGI (IGROV1 ovarian): > 100 µM
- TGI (UACC-257 melanoma): > 100 µM
- TGI (PC-3 prostate): > 100 µM
- TGI (HCT-15 colon): > 100 µM
- TGI (SF-268 CNS): > 100 µM
- TGI (SNB-75 CNS): > 100 µM
- TGI (NCI-H522 lung): > 100 µM
- TGI (COLO 205 colon): > 100 µM

SMILES: CC1(C(=O)O)CCC(C(=O)O)C(C)(C)O1 (configuration not stated)
- TGI (RXF 393 renal): > 100 µM
- TGI (SW-620 colon): > 100 µM
- TGI (RPMI-8226 leukemia): > 100 µM
- TGI (BT-549 breast): > 100 µM
- TGI (UO-31 renal): > 100 µM
- TGI (MDA-MB-435): > 100 µM
- TGI (HS 578T breast): > 100 µM
- TGI (OVCAR-3 ovarian): > 100 µM
- TGI (NCI-H23 lung): > 100 µM
- TGI (T-47D breast): > 100 µM
- TGI (SK-MEL-28 melanoma): > 100 µM
- TGI (HOP-62 NSCLC): > 100 µM
- TGI (MDA-N): > 100 µM
- TGI (TK-10 renal): > 100 µM
- TGI (UACC-62 melanoma): > 100 µM
- TGI (KM12 colon): > 100 µM
- TGI (DU-145 prostate): > 100 µM
- TGI (MOLT-4 leukemia): > 100 µM
- TGI (NCI-H460 lung): > 100 µM
- TGI (A549 NSCLC): > 100 µM
- TGI (SF-539 CNS): > 100 µM
- TGI (HT29 colon): > 100 µM
- TGI (MCF7 breast): > 100 µM
- TGI (OVCAR-5 ovarian): > 100 µM
- TGI (NCI-H226 lung): > 100 µM
- TGI (U251 CNS): > 100 µM
- TGI (LOX IMVI melanoma): > 100 µM
- TGI (SNB-19 CNS): > 100 µM
- TGI (K-562 leukemia): > 100 µM
- TGI (HCC-2998 colon): > 100 µM
- TGI (HOP-92 NSCLC): > 100 µM
- TGI (CCRF-CEM leukemia): > 100 µM
- TGI (OVCAR-8 ovarian): > 100 µM
- TGI (HCT-116 colon): > 100 µM
- TGI (M14 melanoma): > 100 µM
- TGI (ACHN renal): > 100 µM
- TGI (CAKI-1 renal): > 100 µM
- TGI (SK-MEL-5 melanoma): > 100 µM
- TGI (SK-OV-3 ovarian): > 100 µM
- TGI (SF-295 CNS): > 100 µM
- TGI (EKVX NSCLC): > 100 µM
- TGI (NCI/ADR-RES ovarian): > 100 µM
- TGI (MALME-3M melanoma): > 100 µM
- TGI (SN12C renal): > 100 µM
- TGI (IGROV1 ovarian): > 100 µM
- TGI (SK-MEL-2 melanoma): > 100 µM
- TGI (OVCAR-4 ovarian): > 100 µM
- TGI (UACC-257 melanoma): > 100 µM
- TGI (PC-3 prostate): > 100 µM
- TGI (SF-268 CNS): > 100 µM
- TGI (SNB-75 CNS): > 100 µM
- TGI (NCI-H522 lung): > 100 µM
- TGI (COLO 205 colon): > 100 µM

SMILES: CC1=C[C@H](O)[C@@]2(C)[C@@H]([C@@H]1C)[C@H]1CC[C@@H]3[C@@]4(C)CC[C@H](O)C(C)(C)[C@@H]4CC[C@@]3(C)[C@]1(C)C[C@@H]2O
- TGI (RXF 393 renal): 34.1 µM
- TGI (SW-620 colon): 47.3 µM
- TGI (BT-549 breast): 45.1 µM
- TGI (UO-31 renal): 33.2 µM
- TGI (MDA-MB-435): 39.3 µM
- TGI (HS 578T breast): 55 µM
- TGI (OVCAR-3 ovarian): 31.4 µM
- TGI (NCI-H23 lung): 45.3 µM
- TGI (T-47D breast): 28.9 µM
- TGI (SK-MEL-28 melanoma): 34.4 µM
- TGI (HOP-62 NSCLC): 33.4 µM
- TGI (786-0 renal): 28.2 µM
- TGI (MDA-N): 29.7 µM
- TGI (TK-10 renal): 36.8 µM
- TGI (UACC-62 melanoma): 35.3 µM
- TGI (KM12 colon): 39.2 µM
- TGI (DU-145 prostate): 31 µM
- TGI (MOLT-4 leukemia): 34.5 µM
- TGI (NCI-H460 lung): 33.4 µM
- TGI (A549 NSCLC): 26.9 µM
- TGI (HT29 colon): 27.1 µM
- TGI (OVCAR-5 ovarian): 29.4 µM
- TGI (NCI-H226 lung): 45.7 µM
- TGI (U251 CNS): 35.2 µM
- TGI (LOX IMVI melanoma): 54 µM
- TGI (MDA-MB-231 breast): 35.1 µM
- TGI (SNB-19 CNS): 30.1 µM
- TGI (K-562 leukemia): 48.2 µM
- TGI (HCC-2998 colon): 33 µM
- TGI (HOP-92 NSCLC): 29.6 µM
- TGI (CCRF-CEM leukemia): 40.5 µM
- TGI (OVCAR-8 ovarian): 48 µM
- TGI (HCT-116 colon): 25.1 µM
- TGI (M14 melanoma): 31.6 µM
- TGI (CAKI-1 renal): 36.6 µM
- TGI (SK-MEL-5 melanoma): 30.4 µM
- TGI (SK-OV-3 ovarian): 35.7 µM
- TGI (SF-295 CNS): 31.1 µM
- TGI (EKVX NSCLC): 25.6 µM
- TGI (NCI/ADR-RES ovarian): 44.5 µM
- TGI (MALME-3M melanoma): 40.7 µM
- TGI (SN12C renal): 29.2 µM
- TGI (IGROV1 ovarian): 41.2 µM
- TGI (SK-MEL-2 melanoma): 38.4 µM
- TGI (OVCAR-4 ovarian): 33.7 µM
- TGI (UACC-257 melanoma): 34.5 µM
- TGI (PC-3 prostate): 35.1 µM
- TGI (HCT-15 colon): 41.3 µM
- TGI (SF-268 CNS): 25.3 µM
- TGI (NCI-H522 lung): 38 µM
- TGI (COLO 205 colon): 37.9 µM

Source: PubChem BioAssay (NCI)
